Reference: patent publication US20110059122A1, “Inhibition of the Survival of Oral Cavity Cancer by Cyclohexenone Compounds from Antrodia Camphorata” (GOLDEN BIOTECHNOLOGY CORPORATION, priority 2009, published 2011)

Test system: oral cavity cancer cell line SCC-25
Experiment: In vitro survival assay (MTT) for anti-oral cavity cancer effects
Format: cell-based
Conditions: Homo sapiens, SCC-25 cells, 48 hours treatment, absorbance 570 nm, read-out: IC50 (half inhibition concentration), survival of oral cavity cancer cells
Experimental: Inhibiting effects of oral cavity cancer cells by cyclohexenone compounds of Antrodia camphorata from example 1 were assessed according to the anticancer-drug screening model of National Cancer Institute (NCI). The compound 4-hydroxy-2,3-dimethoxy-6-methyl-5-(3,7,11-trimethyl-dodeca-2,6,10-trienyl)-cyclohex-2-enone from example 1 was added into the culture media of oral cavity cancer cell line SCC-25 to determine the survival rates. Survival of cell was analyzed using MTT assay. SCC-25 cell line was a human squamous cell carcinoma cell line.
MTT assay is commonly used to analyze cell proliferation, survival rate of viable cells and cytotoxicity. MTT (3[4,5-dimethylthiazol-2-yl]-2,5-diphenyltetrazolium bromide) is a yellow dye which can be converted to water-insoluble purple formazan on the reductive cleavage of its tetrazolium ring by the succinate tetrazolium reductase in mitochondria of cells. The amount of formazan produced is used to detect the number of viable cells and calculate the survival rates.
The SCC-25 cells were cultivated in DMEM/F12(1:1) medium supplemented with 10% fetal bovine serum and 400 ng/ml of hydrocortisone at 37° C., 5% CO2 for 24 hours. Proliferated cells were washed once with PBS, treated with 1× trypsin-EDTA, and centrifuged at 1200 rpm for 5 min. […] The absorbances were measured at 570 nm with an ELISA Reader to determine the survival rates.

Q: Which IC50 does the source give for COC1=C(OC)C(O)C(C/C=C(\C)CC/C=C(\C)CCC=C(C)C)C(C)C1=O (stereo not shown) [formula 2, 4-hydroxy-2,3-dimethoxy-6-methyl-5-(3,7,11-trimethyl-dodeca-2,6,10-trienyl)-cyclohex-2-enone] here?
A: 1.05 µg/mL
